According to patent US20040009464A1, “Methods for identifying compounds for inhibition of neoplastic lesions, and pharmacetical compositions containing such compounds” (priority 1998, published 2004):
Read-outs that look alike come from different tables or passages of the source. Values belong to the compound of their own block, whether it stands above or below them.

Key:
[1] = target: T1, PDE peak A (PDE5) from SW480 (Homo sapiens, UniProt O76074); experiment: cGMP hydrolysis by PDE peak A (PDE5) isolated from SW480 cells; format: biochemical
T1 construct: The novel PDE activity was first found in SW480 colon cancer cell lines; endogenous in cells; host or cells: SW480 colon cancer cells; DEAE-Trisacryl M fraction (peak A)

[2] = target: T2, cGMP binding sites of GST-cGB-PDE5 fusion protein (Homo sapiens, UniProt O76074); experiment: cGMP binding assay with GST-cGB-PDE5 fusion protein
T2 construct: made in house; host or cells: E. coli BL21 (DE3)

[3] = test system: HT-29 cells; experiment: Cyclic nucleotide (cGMP, cAMP) levels in HT-29 cells by radioimmunoassay; format: cell-based, human; details: for effect on cAMP levels: HT-29 cells
[4] = test system: premalignant lesions in mouse mammary gland organ culture; experiment: Mammary gland organ culture model; format: cell-based; details: FIG. 17
Text: Test compounds identified by the above methods can be tested for antineoplastic activity by their ability to inhibit the incidence of pre-neoplastic lesions in a mammary gland organ culture system. This mouse mammary gland organ culture technique has been successfully used by other investigators to study the effects of known antineoplastic agents such as certain NSAIDs, retinoids, tamoxifen, selenium, and certain natural products, and is useful for validation of the screening method of the present invention.
For example, female BALB/c mice can be treated with a combination of estradiol and progesterone daily, in order to prime the glands to be responsive to hormones in vitro. The animals are sacrificed, and thoracic mammary glands are excised aseptically and incubated for ten days in growth media supplemented with insulin, prolactin, hydrocortisone, and aldosterone. DMBA (7,12-dimethylbenz(a)anthracene) is added to medium to induce the formation of premalignant lesions Fully developed glands are then deprived of prolactin, hydrocortisone, and aldosterone, resulting in the regression of the glands but not the pre-malignant lesions.
The test compound is dissolved in DMSO and added to the culture media for the duration of the culture period. At the end of the culture period, the glands are fixed in 10% formalin, stained with alum camine, and mounted on glass slides. The incidence of forming mammary lesions is the ratio of the glands with mammary lesions to […]. The incidence of mammary lesions in test compound treated glands is compared with that of the untreated glands.
The extent of the area occupied by the mammary lesions can be quantitated by projecting an image of the gland onto a digitation pad. The area covered by the gland is traced on the pad and considered as 100% of the area. The space covered by each of the non-regressed structures is also outlined on the digitization pad and quantitated by the computer.
Mammary gland organ culture experiment were performed as previously described (Mehta and Moon, Cancer Research, 46: 5832-5835, 1986). […]

[5] = test system: PDE4 purified from human colon HT-29 cultured tumor cells; experiment: PDE4 inhibition assay; format: biochemical; details: PDE4 from HT-29 cells
Experimental: (Thompson, W. J., Teraski, W. L., Epstein, P. M., Strada, S. J., Advances in Cyclic Nucleotide Research, 10:69-92, 1979, which is incorporated herein by reference). […] The mixture is incubated at 30° C. for 10 minutes with isolated PDE of this invention. Reactions are terminated, for example, by boiling the reaction mixture for 75 seconds. After cooling on ice, 100 μl of 0.5 mg/mL snake venom (O. Hannah venom available from Sigma) is added and incubated for 10 minutes at 30° C. This reaction is then terminated by the addition of an alcohol, e.g. 1 mL of 100% methanol. Assay samples are applied to 1 mL Dowex 1-X8 column; and washed with 1 mL of 100% methanol. The amount of radioactivity in the breakthrough and the wash from the column is combined and measured with a scintillation counter. The degree of phosphodiesterase inhibition is determined by calculating the amount of radioactivity in drug-treated reactions and comparing against a control sample (a reaction mixture lacking the tested compound but with drug solvent).

[6] = test system: A-427, Lung; experiment: Growth inhibition, SRB assay, A-427; format: cell-based; details: Homo sapiens
Text: (§1) A compound's ability to inhibit tumor cell growth can be measured using the HT-29 human colon carcinoma cell line obtained from ATCC. HT-29 cells have previously been characterized as a relevant colon tumor cell culture model (Fogh, J., and Trempe, G. In. Human Tumor Cells in Vitro, J. Fogh (eds.), Plenum Press, New York, pp. 115-159, 1975). HT-29 cells are maintained in RPMI media supplemented with 5% fetal bovine calf serum (Gemini Bioproducts, Inc., Carlsbad, Calif.) and 2 mm glutamine, and 1% antibiotic-antimycotic in a humidified atmosphere of 95% air and 5% CO2 at 37° C. Briefly, HT-29 cells are plated at a density of 500 cells/well in 96 well microtiter plates and incubated for 24 hours at 37° C. prior to the addition of compound. […] After six days in culture, the cells are fixed by the addition of cold trichloroacetic acid to a final concentration of 10% and protein levels are measured using the sulforhodamine B (SRB) colorimetric protein stain assay as previously described by Skehan, P., Storeng, R., Scudiero, D., Monks, A., McMahon, J., Vistica, D., Warren, J. T., Bokesch, H., Kenney, S., and Boyd, M. R., “New Colorimetric Assay For Anticancer-Drug Screening,” J. Natl Cancer Inst. […]
(§2) To show the effectiveness of this screening method on various forms of neoplasia, compounds were tested on numerous cell lines. […] The IC50 values were determined by the SRB assay. […]

[7] = test system: cGMP PDE purified from human colon HT-29 cultured tumor cells; experiment: cGMP PDE inhibition assay; format: biochemical; parameters: PDE Inhibition: key to the marks not given beside the values
[8] = test system: SW-480 colon adenocarcinoma cells; experiment: Apoptosis fold induction protocol (DNA fragmentation ELISA); format: cell-based, human; parameters: key to the marks not given beside the values; details: qualitative activity profile
[9] = target: T3, purified cyclooxygenase (Type 1) from ram seminal vesicles (Ovis aries, UniProt P05979); experiment: COX inhibition assay with purified cyclooxygenase; parameters: COX Inhibition: key to the marks not given beside the values; details: for COX-I inhibition: FIG. 5
T3 sequence (P05979 25-600): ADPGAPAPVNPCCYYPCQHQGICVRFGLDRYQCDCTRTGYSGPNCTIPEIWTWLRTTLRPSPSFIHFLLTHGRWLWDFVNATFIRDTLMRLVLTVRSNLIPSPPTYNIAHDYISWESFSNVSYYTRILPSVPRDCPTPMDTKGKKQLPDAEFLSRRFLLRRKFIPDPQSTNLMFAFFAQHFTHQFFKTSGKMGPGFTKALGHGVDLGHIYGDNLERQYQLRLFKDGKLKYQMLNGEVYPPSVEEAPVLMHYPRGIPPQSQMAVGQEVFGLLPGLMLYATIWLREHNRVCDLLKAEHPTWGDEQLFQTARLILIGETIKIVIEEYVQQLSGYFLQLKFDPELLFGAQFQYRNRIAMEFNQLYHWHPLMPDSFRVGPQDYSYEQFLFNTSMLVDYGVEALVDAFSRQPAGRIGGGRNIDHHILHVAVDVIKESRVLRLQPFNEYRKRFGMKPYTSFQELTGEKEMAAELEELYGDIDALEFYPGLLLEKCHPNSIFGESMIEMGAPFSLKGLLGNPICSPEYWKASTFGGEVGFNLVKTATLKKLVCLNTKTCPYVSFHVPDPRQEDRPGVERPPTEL

[10] = test system: HCT116, Colon; experiment: Growth inhibition, SRB assay, HCT116; format: cell-based; details: Homo sapiens, HCT-116
Text: as §1, §2

[11] = test system: novel cGMP-specific PDE peak B from SW480; experiment: cGMP hydrolysis by novel cGMP-specific PDE peak B (Section IA) from SW480 cells; format: biochemical, human; details: for Ratio (IC50 Peak A/Peak B): cGMP hydrolysis

competition with cGMP (2 μM) in binding of GST-cGB-PDE5 ([2]; FIG. 24): did not compete
Structure (SMILES): CCCCOC1C2OP(=O)(O)OCC2OC1n1cnc2c(=O)[nH]c(N)nc21 (centres unmarked) [2′-O-butyl-cGMP]

EC50 ([3]; Homo sapiens, 0.5 h, read-out: EC50 for increase of cGMP levels, HT-29 cells treated 30 minutes): 7.3 µM
IC50 [5]: 41 µM
IC50 ([7]; read-out: IC50 for inhibition of cGMP PDE, cGMP PDE from HT-29 cells): 17 µM
COX Inhibition ([9]; qualitative activity profile): ++++
inhibition at 100 µM ([9]; read-out: Cyclooxygenase inhibitory activity, % Inhibition at 100 μM): 97%
IC50 [10]: 45 µM
Structure (SMILES): CSc1ccc(/C=C2/C(C)=C(CC(=O)O)c3cc(F)ccc32)cc1 [Sulindac sulfide]
effect on cAMP levels [3]: unaffected
competition with cGMP (2 μM) in binding of GST-cGB-PDE5 ([2]; FIG. 24): None of the PDE5 inhibitors showed any competition
inhibition of premalignant lesions in mammary gland organ culture [4]: inactive
IC50 [6]: 90 µM
cGMP PDE inhibitory activity, % Inhibition at 10 μM ([7]; 10 μM): 97%
PDE Inhibition ([7]; qualitative activity profile): +++
Apoptosis [8]: +++

competition with cGMP (2 μM) in binding of GST-cGB-PDE5 ([2]; FIG. 24): can partially compete
Structure (SMILES): O=c1[nH]cnc2c1ncn2[C@@H]1O[C@@H]2COP(=O)(O)O[C@H]2[C@H]1O [Cyclic IMP]

competition with cGMP (2 μM) in binding of GST-cGB-PDE5 ([2]; FIG. 24): did not compete
Structure (SMILES): Nc1ccn([C@@H]2O[C@@H]3COP(=O)(O)O[C@H]3[C@H]2O)c(=O)n1 [cCMP]

competition with cGMP (2 μM) in binding of GST-cGB-PDE5 ([2]; FIG. 24): can partially compete
Structure (SMILES): Nc1nc2c(nc(Br)n2[C@@H]2O[C@@H]3COP(=O)(O)O[C@H]3[C@H]2O)c(=O)[nH]1 [Compound 8-bromo-cGMP, 8-bromo-cGMP]

competition with cGMP (2 μM) in binding of GST-cGB-PDE5 ([2]; FIG. 24): did not compete
Structure (SMILES): O=c1ccn([C@@H]2O[C@@H]3COP(=O)(O)O[C@H]3[C@H]2O)c(=O)[nH]1 [cUMP]

Ratio (IC50 Peak A/Peak B) [11]: <0.31
Structure (SMILES): CC1(C)C(=O)Nc2ccc(C3=NNC(=O)CC3)cc21 [Indolidan]

competition with cGMP (2 μM) in binding of GST-cGB-PDE5 ([2]; FIG. 24): did not compete
Structure (SMILES): CCCCOC1C2OP(=O)(O)OCC2OC1n1cnc2c(N)ncnc21 (centres unmarked) [2′-O-butyl-cAMP]

More lines, now with the values behind:

Structure (SMILES): CCCc1nn(C)c2c(=O)[nH]c(-c3cc(S(=O)(=O)N4CCN(C)CC4)ccc3OCC)nc12 [Sildenafil]
inhibition of activity of peak A [1]: inhibited activity of peak A

Structure (SMILES): CCCOc1ccccc1-c1nc2nn[nH]c2c(=O)[nH]1 [Zaprinast]
competition with cGMP (2 μM) in binding of GST-cGB-PDE5 ([2]; FIG. 24): None of the PDE5 inhibitors showed any competition

Structure (SMILES): COc1ccc(C2CNC(=O)C2)cc1OC1CCCC1 (centres unmarked) [Rolipram]
effect on cAMP levels [3]: increased cAMP

Structure (SMILES): CC1=C(CC(=O)O)c2cc(F)ccc2/C1=C\c1ccc([S+](C)[O-])cc1 (centres unmarked) [sulindac]
inhibition of premalignant lesions in mammary gland organ culture [4]: effectively inhibit the formation of premalignant lesions

Structure (SMILES): O=C([O-])C1CCN(c2nc(NCc3ccc4c(c3)OCO4)c3cc(Cl)ccc3n2)CC1.[Na+] [Compound E4021]
competition with cGMP (2 μM) in binding of GST-cGB-PDE5 ([2]; FIG. 24): None of the PDE5 inhibitors showed any competition

Structure (SMILES): Nc1ncnc2c1ncn2[C@@H]1O[C@@H]2COP(=O)(O)O[C@H]2[C@H]1O [Cyclic AMP]
competition with cGMP (2 μM) in binding of GST-cGB-PDE5 [2]: did not compete

Structure (SMILES): COc1cc(C=C2C(C)=C(CC(=O)O)c3cc(F)ccc32)cc(OC)c1OC [Compound B, (Z)-5-Fluoro-2-methyl-1-(3,4,5-trimethoxybenzylidene)-3-acetic acid]
competition with cGMP (2 μM) in binding of GST-cGB-PDE5 ([2]; FIG. 24): None of the PDE5 inhibitors showed any competition
Apoptosis [8]: +++
COX-I inhibition [9]: neither test compound B and E significantly inhibit COX-I

Structure (SMILES): COc1cc(/C=C2/C(C)=C(CC(=O)NCc3ccccc3)c3cc(F)ccc32)cc(OC)c1OC [Compound E, (Z)-5-Fluoro-2-methyl-1-(3,4,5-trimethoxybenzylidene)-3-indenylacetamide, N-benzyl]
competition with cGMP (2 μM) in binding of GST-cGB-PDE5 ([2]; FIG. 24): None of the PDE5 inhibitors showed any competition
competitive (with cGMP) binding to PDE peak B [11]: competitively (with cGMP) binds to PDE peak B
Ratio (IC50 Peak A/Peak B) [11]: 1.0
Apoptosis [8]: ++++
COX-I inhibition [9]: neither test compound B and E significantly inhibit COX-I
competitive (with cGMP) binding to PDE5 peak A [1]: does competitively (with cGMP) bind to PDE 5
